Laboratory results reported in patent publication US20230085307A1, “PYRIDAZINONE COMPOUND AND HERBICIDE” (NISSAN CHEMICAL CORPORATION, priority 2019, published 2023).

Assays:
Italian ryegrass [1] = assay: Test Example 4: herbicidal effect by soil treatment (Table 19, symbol K); assay type: in vivo, Italian ryegrass (Lolium multiflorum); details: for herbicidal effect, K: Italian ryegrass: amount of applied herbicide 320 g/ha
Outline: (§1)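 Step 1: sow seeds in sterilized diluvial soil, cover ~1.5 cm. Step 2: spray diluted emulsion onto soil surface at predetermined rate. Step 3: greenhouse, 25–30° C, three weeks. Step 4: grade effect on each plant by earlier criteria.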

late watergrass = assay: Test Example 1: herbicidal activity, application before weed generation under submerged conditions (Table 16, symbol A); assay type: in vivo, late watergrass (Echinochloa oryzicola)
Outline: (§2)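 Alluvial soil was flooded to 4 cm depth, weed seeds were sown mixed and 2.5-leaf rice seedlings were transplanted. On sowing day, the compound's emulsion, diluted in water to a set dose, was applied to the water surface. Plants grew at 25–30 °C and were scored 0–5 after three weeks.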

wild oat [2] = assay: Test Example 5: herbicidal effect by foliage application, plastic box (Table 20, symbol I); assay type: in vivo, wild oat (Avena fatua); details: foliage application, three weeks after application
Outline: (§3)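 Foliar spray test: emulsion formulation diluted in water to a set application rate, sprayed onto 14-day-old plants raised in diluvial soil at 25° C to 30° C under glass. Both herbicidal effect and crop effect rated visually three weeks later.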

oval-leafed pondweed = assay: Test Example 2: herbicidal activity, application during weed generation under submerged conditions (Table 17, symbol C); assay type: in vivo, oval-leafed pondweed (Monochoria vaginalis); details: application during weed generation, submerged conditions
Outline: (§4)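 Effect on each weed is rated three weeks post-treatment, using the same scoring criteria as the preceding test. Plants grow from mixed-sown seed in flooded alluvial soil (4 cm water) at 25° C. to 30° C., and are treated at one to two leaves with diluted emulsion dropped onto the water.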

lambsquarters = assay: Test Example 4: herbicidal effect by soil treatment (Table 19, symbol O); assay type: in vivo, lambsquarters (Chenopodium album); details: for herbicidal effect, O: lambsquarters: amount of applied herbicide 320 g/ha
Outline: as §1

green foxtail [3] = assay: Test Example 5: herbicidal effect by foliage application, plastic box (Table 20, symbol G); assay type: in vivo, green foxtail (Setaria viridis); details: foliage application, three weeks after application
Outline: as §3

wild oat [4] = assay: Test Example 4: herbicidal effect by soil treatment (Table 19, symbol I); assay type: in vivo, wild oat (Avena fatua); details: for herbicidal effect, I: wild oat: amount of applied herbicide 320 g/ha
Outline: as §1

blackgrass [5] = assay: Test Example 4: herbicidal effect by soil treatment (Table 19, symbol J); assay type: in vivo, blackgrass (Alopecurus myosuroides); details: for herbicidal effect, J: blackgrass: amount of applied herbicide 320 g/ha
Outline: as §1

blackgrass [6] = assay: Test Example 5: herbicidal effect by foliage application, plastic box (Table 20, symbol J); assay type: in vivo, blackgrass (Alopecurus myosuroides); details: foliage application, three weeks after application
Outline: as §3

windgrass = assay: Test Example 5: herbicidal effect by foliage application, plastic box (Table 20, symbol L); assay type: in vivo, windgrass (Apera spica-venti); details: foliage application, three weeks after application
Outline: as §3

Italian ryegrass [7] = assay: Test Example 5: herbicidal effect by foliage application, plastic box (Table 20, symbol K); assay type: in vivo, Italian ryegrass (Lolium multiflorum); details: foliage application, three weeks after application
Outline: as §3

redroot pigweed = assay: Test Example 4: herbicidal effect by soil treatment (Table 19, symbol N); assay type: in vivo, redroot pigweed (Amaranthus retroflexus); details: for herbicidal effect, N: redroot pigweed: amount of applied herbicide 320 g/ha
Outline: as §1

persian speedwell = assay: Test Example 4: herbicidal effect by soil treatment (Table 19, symbol R); assay type: in vivo, Persian speedwell (Veronica persica); details: for herbicidal effect, R: persian speedwell: amount of applied herbicide 320 g/ha
Outline: as §1

Japanese bulrush [8] = assay: Test Example 1: herbicidal activity, application before weed generation under submerged conditions (Table 16, symbol B); assay type: in vivo, Japanese bulrush (Schoenoplectus juncoides)
Outline: as §2

velvetleaf [9] = assay: Test Example 5: herbicidal effect by foliage application, plastic box (Table 20, symbol M); assay type: in vivo, velvetleaf (Abutilon theophrasti); details: foliage application, three weeks after application
Outline: as §3

green foxtail [10] = assay: Test Example 4: herbicidal effect by soil treatment (Table 19, symbol G); assay type: in vivo, green foxtail (Setaria viridis); details: for herbicidal effect, G: green foxtail: amount of applied herbicide 320 g/ha
Outline: as §1

southern crabgrass = assay: Test Example 5: herbicidal effect by foliage application, plastic box (Table 20, symbol F); assay type: in vivo, southern crabgrass (Digitaria ciliaris); details: foliage application, three weeks after application
Outline: as §3

velvetleaf [11] = assay: Test Example 4: herbicidal effect by soil treatment (Table 19, symbol M); assay type: in vivo, velvetleaf (Abutilon theophrasti); details: for herbicidal effect, M: velvetleaf: amount of applied herbicide 320 g/ha
Outline: as §1

chickweed = assay: Test Example 5: herbicidal effect by foliage application, plastic box (Table 20, symbol P); assay type: in vivo, common chickweed (Stellaria media); details: foliage application, three weeks after application
Outline: as §3

Japanese bulrush [12] = assay: Test Example 2: herbicidal activity, application during weed generation under submerged conditions (Table 17, symbol B); assay type: in vivo, Japanese bulrush (Schoenoplectus juncoides); details: application during weed generation, submerged conditions
Outline: as §4

barnyard grass = assay: Test Example 5: herbicidal effect by foliage application, plastic box (Table 20, symbol H); assay type: in vivo, barnyard grass (Echinochloa crus-galli); details: foliage application, three weeks after application
Outline: as §3

[13] = amount of applied herbicide 320 g/ha
[14] = amount of applied herbicide 310 g/ha

CCOc1ccccc1-c1sc2ccc(F)cc2c1-c1c(O)c(CC)nn(C)c1=O [2-416]
herbicidal effect, K: Italian ryegrass (Italian ryegrass [1]): 0 (Herbicidal rate of 5% or less (almost no effect))
Herbicidal effect, A: late watergrass (late watergrass; [13]): 3 (Herbicidal rate of 40% or more and less than 70%)
I: wild oat, herbicidal effect grade (wild oat [2]; 320 g/ha): 0 (Herbicidal rate of 5% or less (almost no effect))
herbicidal effect rating, C: oval-leafed pondweed (oval-leafed pondweed; AAH 320 g/ha): 2 (Herbicidal rate of 20% or more and less than 40%)
herbicidal effect, O: lambsquarters (lambsquarters): 0 (Herbicidal rate of 5% or less (almost no effect))
G: green foxtail, herbicidal effect grade (green foxtail [3]; 320 g/ha): 2 (Herbicidal rate of 20% or more and less than 40%)
herbicidal effect, I: wild oat (wild oat [4]): 0 (Herbicidal rate of 5% or less (almost no effect))
herbicidal effect, J: blackgrass (blackgrass [5]): 0 (Herbicidal rate of 5% or less (almost no effect))
J: blackgrass, herbicidal effect grade (blackgrass [6]; 320 g/ha): 0 (Herbicidal rate of 5% or less (almost no effect))
L: windgrass, herbicidal effect grade (windgrass; 320 g/ha): 0 (Herbicidal rate of 5% or less (almost no effect))
K: Italian ryegrass, herbicidal effect grade (Italian ryegrass [7]; 320 g/ha): 0 (Herbicidal rate of 5% or less (almost no effect))
herbicidal effect, N: redroot pigweed (redroot pigweed): 0 (Herbicidal rate of 5% or less (almost no effect))
herbicidal effect, R: persian speedwell (persian speedwell): 0 (Herbicidal rate of 5% or less (almost no effect))
Herbicidal effect, B: Japanese bulrush (Japanese bulrush [8]; [13]): 3 (Herbicidal rate of 40% or more and less than 70%)
M: velvetleaf, herbicidal effect grade (velvetleaf [9]; 320 g/ha): 3 (Herbicidal rate of 40% or more and less than 70%)
herbicidal effect, G: green foxtail (green foxtail [10]): 0 (Herbicidal rate of 5% or less (almost no effect))
F: southern crabgrass, herbicidal effect grade (southern crabgrass; 320 g/ha): 1 (Herbicidal rate of 5% or more and less than 20%)
herbicidal effect, M: velvetleaf (velvetleaf [11]): 0 (Herbicidal rate of 5% or less (almost no effect))
P: chickweed, herbicidal effect grade (chickweed; 320 g/ha): 5 (Herbicidal rate of 90% or more (almost completely withered))
herbicidal effect rating, B: Japanese bulrush (Japanese bulrush [12]; AAH 320 g/ha): 3 (Herbicidal rate of 40% or more and less than 70%)
H: barnyard grass, herbicidal effect grade (barnyard grass; 320 g/ha): 3 (Herbicidal rate of 40% or more and less than 70%)

CCCC(=O)Oc1c(C)nn(C)c(=O)c1-c1c(-c2ccccc2OC)sc2cc(OCC)ccc12 [3-090]
K: Italian ryegrass, herbicidal effect grade (Italian ryegrass [1]; [14]): 4 (Herbicidal rate of 70% or more and less than 90%)
Herbicidal effect, A: late watergrass (late watergrass; [14]): 5 (Herbicidal rate of 90% or more (almost completely withered))
I: wild oat, herbicidal effect grade (wild oat [2]; 310 g/ha): 4 (Herbicidal rate of 70% or more and less than 90%)
herbicidal effect rating, C: oval-leafed pondweed (oval-leafed pondweed; AAH 310 g/ha): 5 (Herbicidal rate of 90% or more (almost completely withered))
O: lambsquarters, herbicidal effect grade (lambsquarters; [14]): 4 (Herbicidal rate of 70% or more and less than 90%)
G: green foxtail, herbicidal effect grade (green foxtail [3]; 310 g/ha): 4 (Herbicidal rate of 70% or more and less than 90%)
I: wild oat, herbicidal effect grade (wild oat [4]; [14]): 0 (Herbicidal rate of 5% or less (almost no effect))
J: blackgrass, herbicidal effect grade (blackgrass [5]; [14]): 4 (Herbicidal rate of 70% or more and less than 90%)
J: blackgrass, herbicidal effect grade (blackgrass [6]; 310 g/ha): 4 (Herbicidal rate of 70% or more and less than 90%)
L: windgrass, herbicidal effect grade (windgrass; 310 g/ha): 5 (Herbicidal rate of 90% or more (almost completely withered))
K: Italian ryegrass, herbicidal effect grade (Italian ryegrass [7]; 310 g/ha): 5 (Herbicidal rate of 90% or more (almost completely withered))
N: redroot pigweed, herbicidal effect grade (redroot pigweed; [14]): 4 (Herbicidal rate of 70% or more and less than 90%)
R: persian speedwell, herbicidal effect grade (persian speedwell; [14]): 5 (Herbicidal rate of 90% or more (almost completely withered))
Herbicidal effect, B: Japanese bulrush (Japanese bulrush [8]; [14]): 5 (Herbicidal rate of 90% or more (almost completely withered))
M: velvetleaf, herbicidal effect grade (velvetleaf [9]; 310 g/ha): 5 (Herbicidal rate of 90% or more (almost completely withered))
G: green foxtail, herbicidal effect grade (green foxtail [10]; [14]): 3 (Herbicidal rate of 40% or more and less than 70%)
F: southern crabgrass, herbicidal effect grade (southern crabgrass; 310 g/ha): 3 (Herbicidal rate of 40% or more and less than 70%)
M: velvetleaf, herbicidal effect grade (velvetleaf [11]; [14]): 3 (Herbicidal rate of 40% or more and less than 70%)
P: chickweed, herbicidal effect grade (chickweed; 310 g/ha): 5 (Herbicidal rate of 90% or more (almost completely withered))
herbicidal effect rating, B: Japanese bulrush (Japanese bulrush [12]; AAH 310 g/ha): 4 (Herbicidal rate of 70% or more and less than 90%)
H: barnyard grass, herbicidal effect grade (barnyard grass; 310 g/ha): 5 (Herbicidal rate of 90% or more (almost completely withered))

COc1ccccc1-c1sc2cc(F)ccc2c1-c1c(O)c(C)nn(C)c1=O [3-003]
herbicidal effect, K: Italian ryegrass (Italian ryegrass [1]): 4 (Herbicidal rate of 70% or more and less than 90%)
Herbicidal effect, A: late watergrass (late watergrass; [13]): 3 (Herbicidal rate of 40% or more and less than 70%)
I: wild oat, herbicidal effect grade (wild oat [2]; 320 g/ha): 5 (Herbicidal rate of 90% or more (almost completely withered))
herbicidal effect rating, C: oval-leafed pondweed (oval-leafed pondweed; AAH 320 g/ha): 4 (Herbicidal rate of 70% or more and less than 90%)
herbicidal effect, O: lambsquarters (lambsquarters): 4 (Herbicidal rate of 70% or more and less than 90%)
G: green foxtail, herbicidal effect grade (green foxtail [3]; 320 g/ha): 5 (Herbicidal rate of 90% or more (almost completely withered))
herbicidal effect, I: wild oat (wild oat [4]): 4 (Herbicidal rate of 70% or more and less than 90%)
herbicidal effect, J: blackgrass (blackgrass [5]): 3 (Herbicidal rate of 40% or more and less than 70%)
J: blackgrass, herbicidal effect grade (blackgrass [6]; 320 g/ha): 5 (Herbicidal rate of 90% or more (almost completely withered))
L: windgrass, herbicidal effect grade (windgrass; 320 g/ha): 5 (Herbicidal rate of 90% or more (almost completely withered))
K: Italian ryegrass, herbicidal effect grade (Italian ryegrass [7]; 320 g/ha): 5 (Herbicidal rate of 90% or more (almost completely withered))
herbicidal effect, N: redroot pigweed (redroot pigweed): 5 (Herbicidal rate of 90% or more (almost completely withered))
herbicidal effect, R: persian speedwell (persian speedwell): 4 (Herbicidal rate of 70% or more and less than 90%)
Herbicidal effect, B: Japanese bulrush (Japanese bulrush [8]; [13]): 4 (Herbicidal rate of 70% or more and less than 90%)
M: velvetleaf, herbicidal effect grade (velvetleaf [9]; 320 g/ha): 5 (Herbicidal rate of 90% or more (almost completely withered))
herbicidal effect, G: green foxtail (green foxtail [10]): 5 (Herbicidal rate of 90% or more (almost completely withered))
F: southern crabgrass, herbicidal effect grade (southern crabgrass; 320 g/ha): 5 (Herbicidal rate of 90% or more (almost completely withered))
herbicidal effect, M: velvetleaf (velvetleaf [11]): 3 (Herbicidal rate of 40% or more and less than 70%)
P: chickweed, herbicidal effect grade (chickweed; 320 g/ha): 5 (Herbicidal rate of 90% or more (almost completely withered))
herbicidal effect rating, B: Japanese bulrush (Japanese bulrush [12]; AAH 320 g/ha): 3 (Herbicidal rate of 40% or more and less than 70%)
H: barnyard grass, herbicidal effect grade (barnyard grass; 320 g/ha): 5 (Herbicidal rate of 90% or more (almost completely withered))
